Data from patent publication US20120270875A1, “PYRIMIDINE AMIDE COMPOUNDS” (priority 2011, published 2012).

molecular target: sLFA-1/ICAM-1 (Homo sapiens, UniProt P05107+P20701, DEL701-769); assay: sLFA-1/ICAM-1 ELISA; format: binding; conditions: sLFA-1 coated plates, 5dICAM-Fc binding, ELISA; read-out: LFA-1/ICAM (IC50)
Description: sLFA-1/ICAM-1 ELISA and Mac-1/ICAM-1 ELISA
Plates were coated with either 50 μl/well of 2.0 ug/ml solution of sLFA-1 or Mac-1 receptor in divalent cation buffer (1 mM MnCl2, 0.14M NaCl, 20 mM HEPES pH 7.2) at 4° C. overnight. Two hundred fifty μl of blocking buffer (1% BSA in divalent cation buffer) was added to each well 1 hour at 37° C. Plates were washed 3 times with wash buffer (TBS/0.05% Tween-20/1 mM MnCl2). The compound to be tested was solubilized in DMSO. A series of 1:3 dilutions were performed to achieve a concentration range of 0.45 nM-3 uM. Fifty μl of binding buffer (0.5% BSA in divalent cation buffer)/1% DMSO and 50 μl of the solutions to be tested were added to the appropriate wells and incubated for 1 hour. Fifty μl of 5dICAM-Fc (27 ng/ml) was added to the appropriate wells and 50 μl binding buffer was added to non-specific binding wells and incubated for 2 hours and washed. One hundred μl of 1:4000 HRP-goat anti-huIgG was added to each well and incubated for 1 hour and washed. One hundred μl of 1:1 TMB solution was added to each well and developed for 20 min at room temperature. Color development was stopped by adding 100 μl H3PO4 to each well. Absorbance was measured at 450 nm.

sLFA-1/ICAM-1, sequence (P20701 26-1090 limits assumed, stated change not applied): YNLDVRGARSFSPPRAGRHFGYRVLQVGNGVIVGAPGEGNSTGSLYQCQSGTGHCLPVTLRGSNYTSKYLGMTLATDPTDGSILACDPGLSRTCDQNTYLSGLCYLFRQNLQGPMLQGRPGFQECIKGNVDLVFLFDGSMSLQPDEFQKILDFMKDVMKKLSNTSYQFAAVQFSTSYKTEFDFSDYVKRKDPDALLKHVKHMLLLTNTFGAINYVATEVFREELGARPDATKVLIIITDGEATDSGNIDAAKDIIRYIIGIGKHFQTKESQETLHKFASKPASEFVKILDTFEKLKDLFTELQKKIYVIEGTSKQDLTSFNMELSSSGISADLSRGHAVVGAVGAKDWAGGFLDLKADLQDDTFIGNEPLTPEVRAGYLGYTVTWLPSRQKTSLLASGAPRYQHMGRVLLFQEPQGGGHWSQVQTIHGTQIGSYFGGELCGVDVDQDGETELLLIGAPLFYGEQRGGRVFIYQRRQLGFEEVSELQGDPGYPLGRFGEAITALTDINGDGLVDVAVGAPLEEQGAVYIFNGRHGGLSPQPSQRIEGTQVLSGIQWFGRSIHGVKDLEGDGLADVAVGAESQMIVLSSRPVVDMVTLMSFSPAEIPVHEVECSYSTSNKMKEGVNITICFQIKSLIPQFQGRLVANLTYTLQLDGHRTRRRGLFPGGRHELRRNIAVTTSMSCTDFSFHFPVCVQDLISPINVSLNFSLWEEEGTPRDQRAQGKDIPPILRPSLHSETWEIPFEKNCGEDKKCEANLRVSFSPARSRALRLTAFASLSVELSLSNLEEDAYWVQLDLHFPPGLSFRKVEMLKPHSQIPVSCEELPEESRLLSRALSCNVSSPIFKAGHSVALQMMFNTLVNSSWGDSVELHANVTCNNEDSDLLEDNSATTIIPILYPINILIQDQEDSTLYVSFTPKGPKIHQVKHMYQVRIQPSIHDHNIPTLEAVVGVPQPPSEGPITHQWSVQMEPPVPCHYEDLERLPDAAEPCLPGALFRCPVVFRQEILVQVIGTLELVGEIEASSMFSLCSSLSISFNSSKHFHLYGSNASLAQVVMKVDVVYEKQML
sLFA-1/ICAM-1, sequence (P05107 23-700 limits assumed, stated change not applied): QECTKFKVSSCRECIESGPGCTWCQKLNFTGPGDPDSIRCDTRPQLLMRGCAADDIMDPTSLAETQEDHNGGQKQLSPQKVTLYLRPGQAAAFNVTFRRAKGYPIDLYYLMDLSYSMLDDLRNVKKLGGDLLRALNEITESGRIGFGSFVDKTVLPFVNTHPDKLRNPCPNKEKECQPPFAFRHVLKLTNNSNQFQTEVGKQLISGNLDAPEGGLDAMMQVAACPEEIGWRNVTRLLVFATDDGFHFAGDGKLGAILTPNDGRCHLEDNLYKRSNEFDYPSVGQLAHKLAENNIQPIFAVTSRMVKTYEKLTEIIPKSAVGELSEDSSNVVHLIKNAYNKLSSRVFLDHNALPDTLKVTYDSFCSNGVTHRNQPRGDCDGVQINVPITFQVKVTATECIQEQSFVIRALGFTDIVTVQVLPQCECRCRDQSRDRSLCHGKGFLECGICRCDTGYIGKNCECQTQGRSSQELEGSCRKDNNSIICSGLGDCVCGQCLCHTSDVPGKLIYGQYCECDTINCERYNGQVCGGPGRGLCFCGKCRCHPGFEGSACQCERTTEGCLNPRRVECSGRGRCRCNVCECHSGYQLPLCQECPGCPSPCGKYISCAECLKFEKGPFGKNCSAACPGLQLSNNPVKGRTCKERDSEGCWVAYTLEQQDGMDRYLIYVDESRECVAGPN

SMILES	IC50 [nM]
Cc1nc(NCCCc2cc(O)ccc2Cl)nc(C)c1C(=O)N[C@@H](CNC(=O)c1cccs1)C(=O)O [Example 68, (S)-2-({2-[3-(2-Chloro-5-hydroxy-phenyl)-propylamino]-4,6-dimethyl-pyrimidine-5-carbonyl}-amino)-3-[(thiophene-2-carbonyl)-amino]-propionic acid]	291
Cc1ccc(CCCNc2nc(C)c(C(=O)N[C@@H](CNC(=O)c3cccs3)C(=O)O)c(C)n2)cc1O [Example 67, (S)-2-({2-[3-(3-Hydroxy-4-methyl-phenyl)-propylamino]-4,6-dimethyl-pyrimidine-5-carbonyl}-amino)-3-[(thiophene-2-carbonyl)-amino]-propionic acid]	329
Cc1nc(NCCCc2ccc(F)c(O)c2)nc(C)c1C(=O)N[C@@H](CNC(=O)c1cccs1)C(=O)O [Example 65, (S)-2-({2-[3-(4-Fluoro-3-hydroxy-phenyl)-propylamino]-4,6-dimethyl-pyrimidine-5-carbonyl}-amino)-3-[(thiophene-2-carbonyl)-amino]-propionic acid]	1300
Cc1cccc(C(=O)NC[C@H](NC(=O)c2c(C)nc(NCCCc3cccc(O)c3)nc2C)C(=O)O)c1 [Example 97, (S)-2-({2-[3-(3-hydroxy-phenyl)-propylamino]-4,6-dimethyl-pyrimidine-5-carbonyl}-amino)-3-(3-methyl-benzoylamino)-propionic acid]	177
Cc1nc(NCCCc2ccc(O)cc2)nc(C)c1C(=O)N[C@@H](CNC(=O)c1cccs1)C(=O)O [Example 69, (S)-2-({2-[3-(4-Hydroxy-phenyl)-propylamino]-4,6-dimethyl-pyrimidine-5-carbonyl}-amino)-3-[(thiophene-2-carbonyl)-amino]-propionic acid]	28
Cc1nc(NCCCc2cccc(O)c2F)nc(C)c1C(=O)N[C@@H](CNC(=O)c1cccs1)C(=O)O [Example 70, (S)-2-({2-[3-(2-Fluoro-3-hydroxy-phenyl)-propylamino]-4,6-dimethyl-pyrimidine-5-carbonyl}-amino)-3-[(thiophene-2-carbonyl)-amino]-propionic acid]	≥ 3000
Cc1ccc(O)cc1CCCNc1nc(C)c(C(=O)N[C@@H](CNC(=O)c2cccs2)C(=O)O)c(C)n1 [Example 72, (S)-2-({2-[3-(2-Methyl-5-hydroxy-phenyl)-propylamino]-4,6-dimethyl-pyrimidine-5-carbonyl}-amino)-3-[(thiophene-2-carbonyl)-amino]-propionic acid]	159
Cc1nc(C)c(C(=O)NC[C@H](NC(=O)c2c(C)nc(NCCCc3cccc(O)c3)nc2C)C(=O)O)s1 [Example 43, (S)-2-({2-[3-(3-hydroxy-phenyl)-propylamino]-4,6-dimethyl-pyrimidine-5-carbonyl}-amino)-3-[(2,4-dimethyl-thiazole-5-carbonyl)-amino]-propionic acid]	128
Cc1nc(NCCCc2cccc(O)c2)nc(C)c1C(=O)N[C@@H](CNC(=O)c1csc(-c2ccncc2)n1)C(=O)O [Example 47, (S)-2-({2-[3-(3-hydroxy-phenyl)-propylamino]-4,6-dimethyl-pyrimidine-5-carbonyl}-amino)-3-[(2-pyridin-4-yl-thiazole-4-carbonyl)-amino]-propionic acid]	70
Cc1nc(NCCCc2cccc(O)c2C)nc(C)c1C(=O)N[C@@H](CNC(=O)c1cccs1)C(=O)O [Example 66, (S)-2-({2-[3-(3-Hydroxy-2-methyl-phenyl)-propylamino]-4,6-dimethyl-pyrimidine-5-carbonyl}-amino)-3-[(thiophene-2-carbonyl)-amino]-propionic acid]	111
Cc1nc(NCCCc2cc(O)ccc2F)nc(C)c1C(=O)N[C@@H](CNC(=O)c1cccs1)C(=O)O [Example 71, (S)-2-({2-[3-(2-Fluoro-5-hydroxy-phenyl)-propylamino]-4,6-dimethyl-pyrimidine-5-carbonyl}-amino)-3-[(thiophene-2-carbonyl)-amino]-propionic acid]	224
